# Source: US20150218534A1, “MODIFIED DNA POLYMERASE” (TOYOBO CO., LTD., priority 2012, published 2015)
# Test system: 1.3 kbp, 2.8 kbp, and 3.6 kbp of human β-globin
# Test: Amplification of long-chain DNA in PCR using dUTP
# Assay type: biochemical
# Set-up: key to Results of PCR in the presence of dUTP 1.3 kbp / Results of PCR in the presence of dUTP 2.8 kbp / Results of PCR in the presence of dUTP 3.6 kbp: A: Amplified; B: Amplified (faint band); C: Not amplified
# Details: dTTP replaced by dUTP, 35 cycles
# Summary of the method: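 Enzymes (1 U, premixed with KOD antibody) amplified 1.3, 2.8 and 3.6 kbp β-globin from 10 ng human genomic DNA with 2 mM dNTPs having dUTP in place of dTTP, 1.5 mM MgSO4, 35 cycles (98° C. 10 s, 65° C. 30 s, 68° C. ~1 min/kbp). Taq control: 2.5 U, 94° C. denaturation. Yield judged by ethidium-stained agarose gel.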
Substance,Results of PCR in the presence of dUTP 1.3 kbp,Results of PCR in the presence of dUTP 2.8 kbp,Results of PCR in the presence of dUTP 3.6 kbp
KOD D141A/E143A/P36H: KOD D141A/E143A (exo(−)) mutant with P36H,A,A,A
KOD D141A/E143A/P36R: KOD D141A/E143A (exo(−)) mutant with P36R,A,A,A
KOD D141A/E143A/V93K: KOD D141A/E143A (exo(−)) mutant with V93K,A,B,B
KOD D141A/E143A/Y7A/P36H: KOD D141A/E143A (exo(−)) mutant with Y7A and P36H,A,A,A
KOD D141A/E143A/Y7A/P36R: KOD D141A/E143A (exo(−)) mutant with Y7A and P36R,A,A,A
KOD D141A/E143A/Y7A/V93K: KOD D141A/E143A (exo(−)) mutant with Y7A and V93K,A,A,A
KOD D141A/E143A/Y7A: KOD D141A/E143A (exo(−)) mutant with Y7A,C,C,C
KOD H147E/P36H/V93K: KOD H147E (exo(+)) mutant with P36H and V93K,A,A,C
KOD H147E/P36H: KOD H147E (exo(+)) mutant with P36H,B,B,C
KOD H147E/P36R/V93K: KOD H147E (exo(+)) mutant with P36R and V93K,C,C,C
KOD H147E/P36R: KOD H147E (exo(+)) mutant with P36R,B,B,B
KOD H147E/P115Δ: KOD H147E (exo(+)) mutant lacking P115,C,C,C
KOD H147E/V93K: KOD H147E (exo(+)) mutant with V93K,B,B,B
KOD H147E/V93Q: KOD H147E (exo(+)) mutant with V93Q,C,C,C
KOD H147E/V93R: KOD H147E (exo(+)) mutant with V93R,B,B,B
KOD H147E/Y7A/P36H: KOD H147E (exo(+)) mutant with Y7A and P36H,A,A,B
KOD H147E/Y7A/P36R: KOD H147E (exo(+)) mutant with Y7A and P36R,A,A,B
KOD H147E/Y7A/P115Δ: KOD H147E (exo(+)) mutant with Y7A and lacking P115,C,C,C
KOD H147E/Y7A/V93K: KOD H147E (exo(+)) mutant with Y7A and V93K,A,A,B
KOD H147E/Y7A: KOD H147E (exo(+)) mutant with Y7A,C,C,C
KOD I142R/P36H: KOD I142R (exo(−)) mutant with P36H,A,A,A

Substance,Results of PCR in the presence of dUTP 1.3 kbp,Results of PCR in the presence of dUTP 2.8 kbp,Results of PCR in the presence of dUTP 3.6 kbp
KOD I142R/P36R: KOD I142R (exo(−)) mutant with P36R,A,A,A
KOD I142R/V93K: KOD I142R (exo(−)) mutant with V93K,A,B,B
KOD I142R/Y7A/P36H: KOD I142R (exo(−)) mutant with Y7A and P36H,A,A,C
KOD I142R/Y7A/P36R: KOD I142R (exo(−)) mutant with Y7A and P36R,A,A,B
KOD I142R/Y7A/V93K: KOD I142R (exo(−)) mutant with Y7A and V93K,A,A,A
KOD I142R/Y7A: KOD I142R (exo(−)) mutant with Y7A,C,C,C
KOD N210D/P36H: KOD N210D (exo(−)) mutant with P36H,A,A,A
KOD N210D/P36R: KOD N210D (exo(−)) mutant with P36R,A,A,A
KOD N210D/P115Δ: KOD N210D (exo(−)) mutant lacking P115,C,C,C
KOD N210D/V93K: KOD N210D (exo(−)) mutant with V93K,A,B,B
KOD N210D/V93Q: KOD N210D (exo(−)) mutant with V93Q,C,C,C
KOD N210D/V93R: KOD N210D (exo(−)) mutant with V93R,A,B,B
KOD N210D/Y7A/P36R: KOD N210D (exo(−)) mutant with Y7A and P36R,A,A,A
KOD N210D/Y7A/P115Δ: KOD N210D (exo(−)) mutant with Y7A and lacking P115,C,C,C
KOD N210D/Y7A/V93K: KOD N210D (exo(−)) mutant with Y7A and V93K,A,A,A
KOD N210D/Y7A: KOD N210D (exo(−)) mutant with Y7A,C,C,C
KOD P36R/V93K: modified KOD DNA polymerase with P36R and V93K,C,C,C
KOD P115Δ: modified KOD DNA polymerase lacking P115,C,C,C
KOD Y7A/P36R: modified KOD DNA polymerase with Y7A and P36R,A,A,B
KOD Y7A/P115Δ: modified KOD DNA polymerase with Y7A and lacking P115,C,C,C
